According to patent US20230271950A1, “ANTIBACTERIAL PICOLINAMIDE COMPOUNDS” (University of Notre Dame Du Lac, priority 2020, published 2023):
Read-outs that look alike come from different tables or passages of the source.

Tests used:
Veillonella sp. HM-49 = assay: MIC against gut bacterium Veillonella sp.; format: cell-based
Lactobacillus gasseri = assay: MIC against gut bacterium Lactobacillus gasseri; format: cell-based
Fusobacterium nucleatum = assay: MIC against gut bacterium Fusobacterium nucleatum; format: cell-based; details: Fusobacterium nucleatum, Fusobacterium nucleatum strain HM-992, read-out: MIC
[1] = tested on: Fecal microbiota preparation; assay: MIC against fecal microbiota preparation; format: cell-based; details: Fecal microbiota preparation from OpenBiome tested at 1000-fold dilution
Procedure, shortened: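 Broth microdilution in brucella broth with hemin and vitamin K or supplemented BHIS; MRS broth for lactobacilli, sodium lactate added for Veillonella. Incubation 24 h or 48 h at 37° C anaerobically, except Corynebacterium and Lactobacillus grown aerobically.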

HeLa cells = assay: XTT cytotoxicity assay with HeLa cells; format: cell-based; details: Homo sapiens
Protocol: XTT assay. Cytotoxicity assays were performed in triplicate against HeLa cells (ATCC CCL-2). The IC50 values were calculated by nonlinear regression with GraphPad Prism 5 (San Diego, Calif.).
XTT assay. XTT assays were performed with HeLa cells (ATCC CCL-2) in triplicate, as previously described (Lancet 2008, 371, 1486). IC50 values were determined by nonlinear regression using GraphPad Prism 5 (San Diego, Calif.).

Corynebacterium spp. = assay: MIC against gut bacterium Corynebacterium spp.; format: cell-based; details: Corynebacterium, Corynebacterium spp. strain HM-784
S. aureus ATCC29213 = assay: MIC against MSSA; format: cell-based, Staphylococcus aureus; details: Staphylococcus aureus
Bifidobacterium longum = assay: MIC against gut bacterium Bifidobacterium longum; format: cell-based; details: Bifidobacterium longum, Bifidobacterium longum strain HM-846, read-out: MIC
Eubacterium sp. = assay: MIC against gut bacterium Eubacterium sp.; format: cell-based; details: Eubacterium, Eubacterium sp. strain HM-178, read-out: MIC
C. difficile = assay: MIC by broth microdilution against C. difficile strains; format: cell-based, Clostridioides difficile

In the case of `O=C(O)c1ccc2oc(NC(=O)c3cc(Oc4cccc(OC(F)(F)F)c4)ccn3)nc2c1` [Compound 1, Sodium 2-(4-(3-(trifluoromethoxy)phenoxy)picolinamido)benzo[d]oxazole-5-carboxylate], the MIC (Veillonella sp. HM-49; SP.HM49, Veillonella sp. HM-49, Table 1, read-out: MIC) is reported as 16 µg/mL, the MIC (Veillonella sp. HM-49; Veillonella sp. strain HM-49, Table 7) is reported as 16 µg/mL and the MIC (Lactobacillus gasseri; Lactobacillus gasseri strain HM-644, Table 7) is reported as greater than 16 µg/mL. The MIC (Lactobacillus gasseri; Lactobacillus gasseri, Lactobacillus gasser strain HM-644, Table 1, read-out: MIC) was greater than 16 µg/mL, the MIC (Fusobacterium nucleatum; Table 1) was 4 µg/mL and the MIC (Fusobacterium nucleatum; Table 7) was 4 µg/mL. The MIC [1] was greater than 128 µg/mL, the IC50 (HeLa cells) was 179 ± 4 µg/mL and the IC50 (HeLa cells; Table 6) was 179 µg/mL. For the same molecule, the MIC (Corynebacterium spp.; Table 1) was 8 µg/mL, the MIC (Corynebacterium spp.; Table 7) was 8 µg/mL and the MIC (S. aureus ATCC29213; MSSA ATCC 29213, Table 10, unit inferred, read-out: Activity (MIC) against S. aureus) was 64 µg/mL. The MIC (S. aureus ATCC29213; S. aureus ATCC29213, Table 1, read-out: MIC) was 64 µg/mL, the MIC (Bifidobacterium longum; Table 1) was 16 µg/mL and the MIC (Bifidobacterium longum; Table 7) was 16 µg/mL. For the same molecule, the MIC (Eubacterium sp.; Table 1) was 8 µg/mL, the MIC (Eubacterium sp.; Table 7) was 16 µg/mL and the MIC (C. difficile; C. difficile 23691 (VR, vancomycin-resistant), Table 7) was 0.125 µg/mL. The MIC (C. difficile; C. difficile 23691, Table 9) was 0.125 µg/mL, the MIC (C. difficile; C. difficile 24923 (VR, vancomycin-resistant), Table 7) was 0.125 µg/mL and the MIC (C. difficile; C. difficile 24923, Table 9) was 0.125 µg/mL. The MIC (C. difficile; C. difficile 27081 (FR, fidaxomicin-resistant), Table 7) was 0.125 µg/mL, the MIC (C. difficile; C. difficile 27081, Table 9) was 0.125 µg/mL and the MIC (C. difficile; C. difficile 27173 (MR, metronidazole-resistant), Table 7) was 0.125 µg/mL. The MIC (C. difficile; C. difficile 27173, Table 9) was 0.125 µg/mL, the MIC (C. difficile; C. difficile ATCC43255, Table 7) was 0.125 µg/mL and the MIC (C. difficile; C. difficile ATCC43255, Table 9) was 0.125 µg/mL. The MIC (C. difficile; C. difficile ATCC43598, Table 9) was 0.125 µg/mL, the MIC (C. difficile; C. difficile BAA-1801, Table 9) was 0.125 µg/mL and the MIC (C. difficile; C. difficile BAA-1804, Table 9) was 0.125 µg/mL. It also gave an MIC (C. difficile; C. difficile BAA-1812, Table 9) of 0.125 µg/mL, an MIC (C. difficile; C. difficile BAA-1814, Table 9) of 0.125 µg/mL and an MIC (C. difficile; C. difficile BAA-1870, Table 7) of 0.125 µg/mL. It also gave an MIC (C. difficile; C. difficile BAA-1870, Table 9) of 0.125 µg/mL, an MIC (C. difficile; C. difficile HM-89, Table 9) of 0.125 µg/mL and an MIC (C. difficile; C. difficile HM-745, Table 9) of 0.125 µg/mL. The MIC (C. difficile; C. difficile HM-746, Table 9) was 0.125 µg/mL, the MIC (C. difficile; C. difficile HM-747, Table 9) was 0.125 µg/mL and the MIC (C. difficile; C. difficile NR49292, Table 7) was 0.125 µg/mL. It also gave an MIC (C. difficile; C. difficile NR49292, Table 9) of 0.125 µg/mL, an MIC (C. difficile; C. difficile NR49310, Table 7) of 0.125 µg/mL and an MIC (C. difficile; C. difficile NR49310, Table 9) of 0.125 µg/mL. It also gave an MIC (C. difficile; C. difficile NR-13427, Table 9) of 0.125 µg/mL, an MIC (C. difficile; C. difficile NR-13428, Table 9) of 0.125 µg/mL and an MIC (C. difficile; C. difficile NR-13430, Table 9) of 0.125 µg/mL. The MIC (C. difficile; C. difficile NR-13434, Table 9) was 0.125 µg/mL, the MIC (C. difficile; C. difficile NR-13435, Table 9) was 0.125 µg/mL and the MIC (C. difficile; C. difficile NR-13436, Table 9) was 0.125 µg/mL. The MIC (C. difficile; C. difficile NR-13437, Table 9) was 0.125 µg/mL, the MIC (C. difficile; C. difficile NR-13438, Table 9) was 0.125 µg/mL and the MIC (C. difficile; C. difficile NR-13553, Table 9) was 0.125 µg/mL. For the same molecule, the MIC (C. difficile; C. difficile NR-32882, Table 9) was 0.125 µg/mL, the MIC (C. difficile; C. difficile NR-32883, Table 9) was 0.125 µg/mL and the MIC (C. difficile; C. difficile NR-32884, Table 9) was 0.125 µg/mL. It also gave an MIC (C. difficile; C. difficile NR-32886, Table 9) of 0.125 µg/mL, an MIC (C. difficile; C. difficile NR-32887, Table 9) of 0.125 µg/mL and an MIC (C. difficile; C. difficile NR-32888, Table 9) of 0.125 µg/mL. The MIC (C. difficile; C. difficile NR-32889, Table 9) was 0.125 µg/mL, the MIC (C. difficile; C. difficile NR-32892, Table 9) was 0.125 µg/mL and the MIC (C. difficile; C. difficile NR-32897, Table 9) was 0.125 µg/mL. The MIC (C. difficile; C. difficile NR-32900, Table 9) was 0.125 µg/mL, the MIC (C. difficile; C. difficile NR-32904, Table 9) was 0.125 µg/mL and the MIC (C. difficile; C. difficile NR-49277, Table 9) was 0.125 µg/mL. It also gave an MIC (C. difficile; C. difficile NR-49278, Table 9) of 0.125 µg/mL, an MIC (C. difficile; C. difficile NR-49279, Table 9) of 0.125 µg/mL and an MIC (C. difficile; C. difficile NR-49280, Table 9) of 0.125 µg/mL. For the same molecule, the MIC (C. difficile; C. difficile NR-49282, Table 9) was 0.125 µg/mL, the MIC (C. difficile; C. difficile NR-49286, Table 9) was 0.125 µg/mL and the MIC (C. difficile; C. difficile NR-49288, Table 9) was 0.125 µg/mL. For the same molecule, the MIC (C. difficile; C. difficile NR-49290, Table 9) was 0.125 µg/mL, the MIC (C. difficile; C. difficile NR-49291, Table 9) was 0.125 µg/mL and the MIC (C. difficile; C. difficile NR-49293, Table 9) was 0.125 µg/mL. It also gave an MIC (C. difficile; C. difficile NR-49295, Table 9) of 0.125 µg/mL, an MIC (C. difficile; C. difficile NR-49296, Table 9) of 0.125 µg/mL and an MIC (C. difficile; C. difficile NR-49299, Table 9) of 0.125 µg/mL. The MIC (C. difficile; C. difficile NR-49300, Table 9) was 0.125 µg/mL, the MIC (C. difficile; C. difficile NR-49301, Table 9) was 0.125 µg/mL and the MIC (C. difficile; C. difficile NR-49303, Table 9) was 0.125 µg/mL. The MIC (C. difficile; C. difficile NR-49307, Table 9) was 0.125 µg/mL and the MIC (C. difficile; C. difficile NR-49308, Table 9) was 0.125 µg/mL.
